System: TATA box-containing oligonucleotide (DNA, duplex) GAAGGGGGGCTATAAAAGGGGGTG/CACCCCCTTTTATAGCCCCCCTTC
Test: EMSA, inhibition of TBP binding to TATA box probe
Conditions: LightShift chemiluminescent EMSA; probe preincubated with BBR; TBP from PC12 nuclear extract displaced; apparent

`COc1ccc2cc3[n+](cc2c1OC)CCc1cc2c(cc1-3)OCO2` showed an IC50 of 0.3985 µmol.
